Like-named read-outs stand apart in the source and are kept apart here.
Legend:
Botrytis cinerea [1] = test: in vitro-Test with fungal microorganisms, Method A (tables B1-B14); assay type: cell-based; conditions: Botrytis cinerea
Summary of the method: (§1)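 Broth microdilution-type growth test in potato dextrose medium with spores or mycelium of the fungus, compound pre-dried from methanol/emulsifier. Efficacy from 620 nm extinction after 3-5 days at 20° C, scaled 0% (untreated growth) to 100% (no growth).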

Alternaria alternate = test: in vitro-Test with fungal microorganisms, Method A (tables A1-A12); assay type: cell-based, Alternaria alternata; conditions: Alternaria, applied alone, read-out: Efficacy %
Summary of the method: as §1

Fusarium culmorum = test: in vitro-Test with fungal microorganisms, Method A (tables G1-G4); assay type: cell-based
Protocol: (§2) Example: In Vitro-Test with Fungal Microorganisms
(§3) Wells of 96-well microtiter plates are filled with 10 μl of a preparation of test compound or compound combination in methanol+emulsifier alkylaryl-polyglycol-ether. Thereafter, the solvent is evaporated in a hood. At the next step, 100 μl of liquid potato dextrose medium is given into each well, that has been amended with an appropriate concentration of spores or mycelium suspension of the test fungus.
(§4) With the aid of a photometer, the extinction in all wells is measured at the wavelength of 620 nm.
(§5) The microtiter plates are incubated at 20° C. and 85% relative humidity. The inhibition of growth is determined again photometrically 3-5 days after the application. Efficacy is calculated in relation to the untreated control, 0% efficacy means fungal growth as high as in untreated control while 100% efficacy means no fungal growth is measured.
(§6) The data in tables A1 to A12, B1 to B14, C1 to C10, D1 to D8, E1 to E8, F1 to F11, G1 to G4, H1 to H4 and I1 to I5 were collected according to Method A. The data in tables A13 to A22, B15 to B18, C11 to C20, E9 to E16, F12 to F15, G5 to G15, H5 to H8, I6 to I11 and J1 to J11 were collected according to Method B.

Diaporthe citri = test: in vitro-Test with fungal microorganisms, Method A (tables F1-F11); assay type: cell-based; conditions: Diaporthe citri, read-out: Efficacy
Summary of the method: as §1

[2] = system: Ustilago segetum var. avenae; test: in vitro-Test with fungal microorganisms, Method A (tables I1-I5); assay type: cell-based; conditions: alone, read-out: Efficacy %
Protocol: as §2, §3, §4, §5, §6

Cercospora beticola [3] = test: in vitro-Test with fungal microorganisms, Method A (tables C1-C10); assay type: cell-based; conditions: Cercospora beticola, read-out: Efficacy %
Summary of the method: as §1

Cercospora beticola [4] = test: in vitro-Test with fungal microorganisms, Method B (tables C11-C20); assay type: cell-based; conditions: Cercospora beticola, read-out: Efficacy %
Summary of the method: (§7)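 Steps: solvent evaporation leaves the compound coating the wells; fungus-inoculated liquid growth medium goes on top; absorbance at 600 nm is measured; incubation runs 3 to 7 days at 20° C. with 85% relative humidity. Inhibition is then read photometrically and expressed as efficacy against untreated control.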

Cordana musae [5] = test: in vitro-Test with fungal microorganisms, Method A (tables E1-E8); assay type: cell-based; conditions: Neocordana musae, single substance, read-out: Efficacy %
Protocol: as §2, §3, §4, §5, §6

Cordana musae [6] = test: in vitro-Test with fungal microorganisms, Method B (tables E9-E16); assay type: cell-based; conditions: Neocordana musae, single active, read-out: Efficacy
Summary of the method: as §7

Colletotrichum coccodes = test: in vitro-Test with fungal microorganisms, Method B (tables J1-J11); assay type: cell-based; conditions: Colletotrichum coccodes, read-out: Efficacy %
Summary of the method: as §7

[7] = system: Ustilago segetum var. avenae; test: in vitro-Test with fungal microorganisms, Method B (tables I6-I11); assay type: cell-based; conditions: 1 ppm; read-out: Efficacy %
Summary of the method: as §7

Alternaria alternata = test: in vitro-Test with fungal microorganisms, Method B (tables A13-A22); assay type: cell-based; conditions: Alternaria alternata, read-out: Efficacy
Summary of the method: as §7

[8] = system: Colletotrichum lindemuthianum; test: in vitro-Test with fungal microorganisms, Method A (tables D1-D8); assay type: cell-based; conditions: Colletotrichum lindemuthianum, read-out: Efficacy %
Protocol: as §2, §3, §4, §5, §6

Botrytis cinerea [9] = test: in vitro-Test with fungal microorganisms, Method B (tables B15-B18); assay type: cell-based; conditions: Botrytis cinerea, alone, read-out: Efficacy %
Protocol: as §2
Wells of 96-well microtiter plates are filled with 30 μl of a preparation of test compound or compound combination in methanol+emulsifier alkylaryl-polyglycol-ether. Thereafter, the solvent is evaporated in a hood. At the next step, 200 μl of liquid growth medium is given, that has been amended with an appropriate concentration of spores or mycelium suspension of the test fungus.
With the aid of a photometer, the extinction in all wells is measured at the wavelength of 600 nm.
The microtiter plates are incubated for 3 to 7 days at 20° C. and 85% relative humidity. After the incubation inhibition of growth is determined photometrically. Efficacy is calculated in relation to the untreated control, 0% efficacy means fungal growth as high as in untreated control while 100% efficacy means no fungal growth is measured.
as §6

Cc1cc(C2=NOCC(Cc3ccc(Br)cc3C)N2)c(Oc2cccc(Cl)c2F)nn1 (racemic) [Compound I-300, rac-5-[(4-bromo-2-methylphenyl)methyl]-3-[3-(3-chloro-2-fluorophenoxy)-6-methylpyridazin-4-yl]-5,6-dihydro-4H-1,2,4-oxadiazine]
inhibition of growth at 0.0008 ppm (Botrytis cinerea [1]; 0.0008 ppm, read-out: Efficacy): 0%
inhibition of growth at 0.004 ppm (Botrytis cinerea [1]; 0.004 ppm, read-out: Efficacy): 0%
inhibition of growth at 0.02 ppm (Botrytis cinerea [1]; 0.02 ppm, read-out: Efficacy): 0%
inhibition of growth at 0.1 ppm (Botrytis cinerea [1]; 0.1 ppm, read-out: Efficacy): 49%
inhibition of growth at 0.1 ppm (Alternaria alternate; 0.1 ppm): 100%
inhibition of growth at 0.0008 ppm (Fusarium culmorum; Fusarium culmorum, 0.0008 ppm, alone, read-out: Efficacy): 2%
inhibition of growth at 0.004 ppm (Fusarium culmorum; Fusarium culmorum, 0.004 ppm, alone, read-out: Efficacy): 6%
inhibition of growth at 0.02 ppm (Fusarium culmorum; Fusarium culmorum, 0.02 ppm, alone, read-out: Efficacy): 5%
inhibition of growth at 0.1 ppm (Fusarium culmorum; Fusarium culmorum, 0.1 ppm, alone, read-out: Efficacy): 2%
inhibition of growth at 0.0008 ppm (Diaporthe citri; applied alone, 0.0008 ppm): 0%
inhibition of growth at 0.004 ppm (Diaporthe citri; applied alone, 0.004 ppm): 10%
inhibition of growth at 0.02 ppm (Diaporthe citri; applied alone, 0.02 ppm): 22%
inhibition of growth at 0.1 ppm (Diaporthe citri; applied alone, 0.1 ppm): 44%
inhibition of growth at 0.0008 ppm ([2]; 0.0008 ppm): 0%
inhibition of growth at 0.004 ppm ([2]; 0.004 ppm): 0%
inhibition of growth at 0.02 ppm ([2]; 0.02 ppm): 0%
inhibition of growth at 0.1 ppm ([2]; 0.1 ppm): 0%
inhibition of growth at 0.0008 ppm (Cercospora beticola [3]; 0.0008 ppm alone): 0%
inhibition of growth at 0.0008 ppm (Cercospora beticola [3]; 0.0008 ppm): 0%
inhibition of growth at 0.004 ppm (Cercospora beticola [3]; 0.004 ppm alone): 0%
inhibition of growth at 0.004 ppm (Cercospora beticola [3]; 0.004 ppm): 0%
inhibition of growth at 0.02 ppm (Cercospora beticola [3]; 0.02 ppm alone): 10%
inhibition of growth at 0.02 ppm (Cercospora beticola [3]; 0.02 ppm): 10%
inhibition of growth at 0.1 ppm (Cercospora beticola [3]; 0.1 ppm alone): 19%
inhibition of growth at 0.1 ppm (Cercospora beticola [3]; 0.1 ppm): 19%

O=C1c2ccccc2C(=O)N1SC(Cl)(Cl)Cl [(5.012) folpet, folpet]
inhibition of growth at 0.008 ppm (Cercospora beticola [4]; 0.008 ppm): 7%
inhibition of growth at 1 ppm (Cercospora beticola [4]): 100%
inhibition of growth at 0.04 ppm (Cercospora beticola [4]; single compound, 0.04 ppm): 0%
inhibition of growth at 0.2 ppm (Cercospora beticola [4]; single compound, 0.2 ppm): 16%
inhibition of growth at 1 ppm (Cercospora beticola [4]; single compound): 86%
inhibition of growth at 0.08 ppm (Cordana musae [5]; 0.08 ppm): 5%
inhibition of growth at 0.4 ppm (Cordana musae [5]; 0.4 ppm): 10%
inhibition of growth at 2 ppm (Cordana musae [5]; 2.0 ppm): 100%
inhibition of growth at 2 ppm (Botrytis cinerea [1]; alone, 2.0 ppm, read-out: Efficacy %): 100%
inhibition of growth at 10 ppm (Botrytis cinerea [1]; alone, 10.0 ppm, read-out: Efficacy %): 100%
inhibition of growth at 2 ppm (Alternaria alternate; 2.0 ppm): 100%
inhibition of growth at 10 ppm (Alternaria alternate; 10.0 ppm): 100%
Efficacy (Fusarium culmorum; 0.4 ppm alone): 0%
Efficacy (Fusarium culmorum; 10.0 ppm, alone): 100%
inhibition of growth at 0.08 ppm (Fusarium culmorum; Fusarium culmorum, 0.08 ppm, alone, read-out: Efficacy): 0%
inhibition of growth at 2 ppm (Fusarium culmorum; Fusarium culmorum, 2.0 ppm, alone, read-out: Efficacy): 100%
inhibition of growth at 0.008 ppm (Cordana musae [6]; 0.008 ppm): 0%
inhibition of growth at 0.04 ppm (Cordana musae [6]; 0.04 ppm): 0%
inhibition of growth at 0.2 ppm (Cordana musae [6]; 0.2 ppm): 17%
inhibition of growth at 1 ppm (Cordana musae [6]; 1 ppm): 62%
inhibition of growth at 0.008 ppm (Colletotrichum coccodes; 0.008 ppm): 1%
inhibition of growth at 0.04 ppm (Colletotrichum coccodes; 0.04 ppm): 3%
inhibition of growth at 1 ppm (Colletotrichum coccodes; 1 ppm): 66%
inhibition of growth at 0.08 ppm (Diaporthe citri; Table F10, 0.08 ppm alone): 12%
inhibition of growth at 2 ppm (Diaporthe citri; Table F10, 2.0 ppm alone): 99%
inhibition of growth at 10 ppm (Diaporthe citri; Table F10, 10.0 ppm alone): 100%
inhibition of growth at 0.08 ppm (Diaporthe citri; applied alone, 0.08 ppm): 1%
inhibition of growth at 0.4 ppm (Diaporthe citri; applied alone, 0.4 ppm): 56%
inhibition of growth at 2 ppm (Diaporthe citri; applied alone, 2.0 ppm): 99%
inhibition of growth at 1 ppm [7]: 6%
inhibition of growth at 0.4 ppm ([2]; 0.4 ppm): 15%
inhibition of growth at 2 ppm ([2]; 2.0 ppm): 100%
inhibition of growth at 10 ppm ([2]; 10.0 ppm): 100%
inhibition of growth at 0.2 ppm (Alternaria alternata): 6%
inhibition of growth at 1 ppm (Alternaria alternata): 99%
inhibition of growth at 0.008 ppm (Alternaria alternata; single compound, 0.008 ppm): 6%
inhibition of growth at 0.04 ppm (Alternaria alternata; single compound, 0.04 ppm): 3%
inhibition of growth at 0.2 ppm (Alternaria alternata; single compound): 7%
inhibition of growth at 1 ppm (Alternaria alternata; single compound): 83%
inhibition of growth at 0.08 ppm ([8]; mixing partner alone, 0.08 ppm): 0%
inhibition of growth at 0.4 ppm ([8]; mixing partner alone, 0.4 ppm): 0%
inhibition of growth at 2 ppm ([8]; mixing partner alone, 2.0 ppm): 100%
inhibition of growth at 10 ppm ([8]; mixing partner alone, 10.0 ppm): 100%
inhibition of growth at 0.08 ppm ([8]; single active at 0.08 ppm): 0%
inhibition of growth at 0.4 ppm ([8]; single active at 0.4 ppm): 13%
inhibition of growth at 2 ppm ([8]; single active at 2.0 ppm): 98%
inhibition of growth at 10 ppm ([8]; single active at 10.0 ppm): 100%
inhibition of growth at 0.4 ppm (Cercospora beticola [3]; 0.4 ppm): 50%
inhibition of growth at 0.008 ppm (Botrytis cinerea [9]; 0.008 ppm): 8%
inhibition of growth at 0.04 ppm (Botrytis cinerea [9]; 0.04 ppm): 1%
inhibition of growth at 1 ppm (Botrytis cinerea [9]; 1 ppm): 16%

— patent US12653191B2, “Active compound combinations” (Bayer Aktiengesellschaft, priority 2020, dated 2026)
